# Results as given in patent US11639350B2, “Heteroaryldihydropyrimidine derivatives and methods of treating hepatitis B infections” (Janssen Pharmaceutica NV, priority 2018, dated 2023).
# pEC50: −log10 of the molar value. Read-outs that look alike come from different tables or passages of the source.
# Assays:
# Format in all cases: cell-based
# HBV = HBV inhibitory activity: HBV DNA in the culture medium of HepG2.2.15 cells by q-PCR; conditions: HepG2.2.15 cells, 6 days of compound treatment, HBV DNA in culture medium by q-PCR, highest concentration 10 μM, read-out: EC50
# Outline: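 Supernatant HBV DNA quantified by q-PCR after a 6-day compound exposure, with one mid-course medium change, of HepG2.2.15 cells (stably integrated HBV; 40,000 per well, 2% FBS). Eight-point 3-fold series topped at 10 μM for antiviral EC50; separate plates of 5,000 cells per well with 100 μM top give CC50.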
# HepG2.2.15 cells = test: Cytotoxicity determination in HepG2.2.15 cells (CCK-8); conditions: 6 days of compound treatment, CCK-8, highest concentration 100 μM
# Outline: (§1)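 CC50 is from CCK-8 absorbance (450 nm, 630 nm reference) after 2.5 h with reagent. Before that, compounds were applied for six days, top concentration 100 μM, eight threefold dilutions, one mid-course medium change, to stably HBV-integrated HepG2.2.15 cells plated at 5,000/well in 2% FBS.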
# [1] = as above; conditions: human, 6 days of compound treatment, CCK-8, highest concentration 100 μM
# Outline: as §1
# [2] = Hepatitis B virus, HepG2.2.15, 144 h
Compound,pEC50 (HBV),CC50 (HepG2.2.15 cells) [nM],pEC50 (HBV; [2]),CC50 at 6 days [1] [nM]
"COC(=O)C1=C(C2CCCOC2)NC(c2nccs2)=NC1c1ccc(F)cc1Cl (single isomer, unassigned) [Compound 48D, Methyl 4-(2-chloro-4-fluorophenyl)-6-(tetrahydro-2H-pyran-3-yl)-2-(thiazol-2-yl)-1,4-dihydropyrimidine-5-carboxylate]",6.68,> 100000,,
"COC(=O)C1=C(C2CCOC2)NC(c2nccs2)=NC1c1cccc(F)c1Cl (single isomer, unassigned) [Compound 74C, Methyl 4-(2-chloro-3-fluorophenyl)-6-(tetrahydrofuran-3-yl)-2-(thiazol-2-yl)-1,4-dihydropyrimidine-5-carboxylate]",6.60,86500,,
"COC(=O)C1=C(C2CCCOC2)NC(c2nccs2)=NC1c1ccc(F)cc1Cl (single isomer, unassigned) [Compound 48A, Methyl 4-(2-chloro-4-fluorophenyl)-6-(tetrahydro-2H-pyran-3-yl)-2-(thiazol-2-yl)-1,4-dihydropyrimidine-5-carboxylate]",6.25,46900,,
"CCCS(=O)(=O)N1CCC(C2=C(C(=O)OC)C(c3ccc(F)cc3Cl)N=C(c3nccs3)N2)C1 (single isomer, unassigned) [Compound 256A, Methyl 4-(2-chloro-4-fluorophenyl)-6-(−1-(propylsulfonyl)pyrrolidin-3-yl)-2-(thiazol-2-yl)-1,4-dihydropyrimidine-5-carboxylate]",7.09,> 100000,,
"COC(=O)C1=C(C2CCN(S(=O)(=O)C3CC(O)C3)CC2)NC(c2nccs2)=NC1c1ccc(F)cc1Cl (single isomer, unassigned) [Compound 335B, Methyl 4-(2-chloro-4-fluorophenyl)-6-(1-((3-hydroxycyclobutyl)sulfonyl)piperidin-4-yl)-2-(thiazol-2-yl)-1,4-dihydropyrimidine-5-carboxylate]",7.89,15200,,
"COC(=O)C1=C(C23CC(N(C[C@@H](O)CO)S(C)(=O)=O)(C2)C3)NC(c2nccs2)=NC1c1ccc(F)cc1Cl (single isomer, unassigned) [Compound 376D]",7.46,97300,,
"COC(=O)C1=C(C2CCN(S(=O)(=O)[C@H]3C[C@H](CO)C3)CC2)NC(c2nccs2)=N[C@@H]1c1ccc(F)cc1Cl [Compound 357A, (trans)-Methyl 4-(2-chloro-4-fluorophenyl)-6-(1-((3-(hydroxymethyl)cyclobutyl)sulfonyl)piperidin-4-yl)-2-(thiazol-2-yl)-1,4-dihydropyrimidine-5-carboxylate]",,,7.43,13600
"COC(=O)C1=C(C2CCN(S(=O)(=O)[C@@H]3CC[C@H](C(=O)O)C3)CC2)NC(c2nccs2)=NC1c1ccc(F)cc1Cl (relative stereo) [Compound 311B, (cis)-3-((4-(6-(2-Chloro-4-fluorophenyl)-5-(methoxycarbonyl)-2-(thiazol-2-yl)-3,6-dihydropyrimidin-4-yl)piperidin-1-yl)sulfonyl)-cyclopentanecarboxylic Acid]",,,7.01,> 100000
"COC(=O)C1=C(C2CCN(S(=O)(=O)C3CC(O)C3)CC2)NC(c2nccs2)=NC1c1ccc(F)cc1Cl (single isomer, unassigned) [Compound 335A, Methyl 4-(2-chloro-4-fluorophenyl)-6-(1-((3-hydroxycyclobutyl)sulfonyl)piperidin-4-yl)-2-(thiazol-2-yl)-1,4-dihydropyrimidine-5-carboxylate]",,,7.70,12200
"COCCOCCS(=O)(=O)N1CCC(C2=C(C(=O)OC)C(c3ccc(F)cc3Cl)N=C(c3nccs3)N2)CC1 (stereo not shown) [Compound 464, Methyl 4-(2-chloro-4-fluorophenyl)-6-(1-((2-(2methoxyethoxy)ethyl)sulfonyl)piperidin-4-yl)-2-(thiazol-2-yl)-1,4-dihydropyrimidine-5-carboxylate]",,,> 8.34,29400
"COC(=O)C1=C(C2CCN(S(=O)(=O)C(F)F)CC2)NC(c2nccs2)=NC1c1ccc(F)c(F)c1Cl (single isomer, unassigned) [Compound 166A, Methyl 4-(2-chloro-3,4-difluorophenyl)-6-(1-((difluoromethyl)sulfonyl)piperidin-4-yl)-2-(thiazol-2-yl)-1,4-dihydropyrimidine-5-carboxylate]",,,7.21,> 50000
"COC(=O)C1=C(C2CCN(S(=O)(=O)CC(C)(C)C(=O)O)CC2)NC(c2nccs2)=NC1c1ccc(F)cc1Cl (stereo not shown) [Compound 223, 3-((4-(6-(2-Chloro-4-fluorophenyl)-5-(methoxycarbonyl)-2-(thiazol-2-yl)-3,6-dihydropyrimidin-4-yl)piperidin-1-yl)sulfonyl)-2,2-dimethylpropanoic Acid]",,,6.84,50000
"CCOC(=O)C1=C(C2CCN(S(=O)(=O)[C@H]3C[C@H](C(=O)O)C3)CC2)NC(c2nccs2)=NC1c1ccc(F)cc1Cl (stereo partly drawn) [Compound 329B, (trans)-3-((4-(6-(2-Chloro-4-fluorophenyl)-5-(ethoxycarbonyl)-2-(thiazol-2-yl)-3,6-dihydropyrimidin-4-yl)piperidin-1-yl)sulfonyl)cyclobutane-carboxylic Acid]",,,7.16,60000
"COC(=O)C1=C(C2CCN(S(=O)(=O)[C@H]3C[C@H](C(=O)O)C3)CC2)NC(c2nccs2)=NC1c1cccc(F)c1Br (relative stereo) [Compound 439B, (trans)-3-((4-(6-(2-Bromo-3-fluorophenyl)-5-(methoxycarbonyl)-2-(thiazol-2-yl)-3,6-dihydropyrimidin-4-yl)piperidin-1-yl)sulfonyl)cyclobutanecarboxylic Acid]",,,7.18,53800
"COC(=O)C1=C(C2CCN(S(=O)(=O)c3ccccn3)CC2)NC(c2nccs2)=NC1c1cccc(F)c1Cl (single isomer, unassigned) [Compound 116B, Methyl 4-(2-chloro-3-fluorophenyl)-6-(1-(pyridin-2-ylsulfonyl)-piperidin-4-yl)-2-(thiazol-2-yl)-1,4-dihydropyrimidine-5-carboxylate]",,,6.68,71300
"CCOC(=O)C1=C([C@H]2CC[C@H](C(=O)OC)CC2)NC(c2nccs2)=NC1c1ccc(F)cc1Cl (single isomer, unassigned) [Compound 20X, Ethyl 4-(2-chloro-4-fluorophenyl)-6-(trans-4-(methoxycarbonyl)-cyclohexyl)-2-(thiazol-2-yl)-1,4-dihydropyrimidine-5-carboxylate]",,,7.28,27200
"COC(=O)C1=C(C23CC(N(C[C@@H](O)CO)S(C)(=O)=O)(C2)C3)NC(c2nccs2)=NC1c1ccc(F)cc1Cl (single isomer, unassigned) [Compound 376C]",7.12,,,95000
"CNS(=O)(=O)[C@H]1CC[C@@H](C2=C(C(=O)OC)C(c3cccc(F)c3Cl)N=C(c3nccs3)N2)CC1 (single isomer, unassigned) [Compound 259C, (cis)-methyl 4-(2-chloro-3-fluorophenyl)-6-(4-(N-methylsulfamoyl)cyclohexyl)-2-(thiazol-2-yl)-1,4-dihydropyrimidine-5-carboxylate]",,,7.44,12700
"CCOC(=O)C1=C([C@@H]2C[C@H]2CC(=O)O)NC(c2nccs2)=NC1c1ccc(F)cc1Cl (single isomer, unassigned) [Compound 92, 2-(trans-2-(6-(2-Chloro-4-fluorophenyl)-5-(ethoxycarbonyl)-2-(thiazol-2-yl)-3,6-dihydropyrimidin-4-yl)cyclopropyl)acetic Acid]",,,6.49,99000
"COC(=O)C1=C(C2CCN(S(=O)(=O)[C@H]3C[C@H](C(C)(C)O)C3)CC2)NC(c2nccs2)=NC1c1ccc(F)cc1Cl (single isomer, unassigned) [Compound 244B, (trans)-Methyl 4-(2-chloro-4-fluorophenyl)-6-(1-((3-(2-hydroxypropan-2-yl)cyclobutyl)sulfonyl)piperidin-4-yl)-2-(thiazol-2-yl)-1,4-dihydropyrimidine-5-carboxylate]",,,8.22,12300
"COC(=O)C1=C(C2CCN(S(=O)(=O)[C@H]3C[C@H](C(=O)O)C3)CC2)NC(c2nccs2)=NC1c1ccc(F)cc1Cl (relative stereo) [Compound 285A, trans-3-((4-(6-(2-Chloro-4-fluorophenyl)-5-(methoxycarbonyl)-2-(thiazol-2-yl)-3,6-dihydropyrimidin-4-yl)piperidin-1-yl)sulfonyl)cyclobutane-carboxylic Acid]",,,7.62,67200
"COC(=O)C1=C([C@H]2CC[C@@H](N(CCO)S(C)(=O)=O)CC2)NC(c2nccs2)=NC1c1ccc(F)cc1Cl (single isomer, unassigned) [Compound 180B, (cis)-Methyl 4-(2-chloro-4-fluorophenyl)-6-(4-(N-(2-hydroxyethyl)methylsulfonamido)cyclohexyl)-2-(thiazol-2-yl)-1,4-dihydro-pyrimidine-5-carboxylate]",,,7.62,22100
"COC(=O)C1=C([C@H]2CC[C@H](C(=O)O)CC2)NC(c2nccs2)=NC1c1ccc(F)c(F)c1Br (stereo partly drawn) [Compound 229B, (trans)-4-(6-(2-Bromo-3,4-difluorophenyl)-5-(methoxycarbonyl)-2-(thiazol-2-yl)-3,6-dihydropyrimidin-4-yl)cyclohexane-carboxylic Acid]",,,7.96,32100
